According to ChEMBL document CHEMBL1133868, “Synthesis of P(1)-Citronellyl-P(2)-alpha-D-pyranosyl pyrophosphates as potential substrates for the E. coli undecaprenyl-pyrophosphoryl-N-acetylglucoseaminyl transferase MurG” (Bioorg Med Chem Lett, 2001):
Active and inactive are the calls of the source. The rule behind the calls is not given here.

System: Bacillus subtilis
Experiment: Tested for antimicrobial activity against Bacillus Subtilis; Not active
Format: functional, organism-based

Compound	Activity
CC(=O)NC1C(OP(=O)(O)OP(=O)(O)OCC[C@H](C)CCC=C(C)C)OC(CO)C(O)C1O[C@H](C)C(=O)O (some centres not stated)	inactive
CC(C)=CCC[C@@H](C)CCOP(=O)(O)OP(=O)(O)O[C@H]1O[C@@H](CO)[C@@H](O)[C@H](O)[C@@H]1O	inactive
